Measurements: patent US7119072B2, “Macrocyclic peptides active against the hepatitis C virus” (Boehringer Ingelheim (Canada) Ltd., priority 2002, dated 2006)

Assay: In vivo oral absorption screen / pharmacokinetic assay in the rat
Conditions: male, Sprague Dawley, rat plasma, dose of 5 mg/kg in Methocel:Tween20 (0.5%:0.3%), read-out: area under the curve (AUC)
Description: More explicitly, the following assay, an in vivo oral absorption screen, was used to determine plasma levels of test compounds in a rat after oral administration: The selection of compounds to be pooled into a “cassette” was based on their structural similarity and physicochemical properties. A solid phase extraction method applicable to all the selected compounds was established. Based on the initial testing where each compound was spiked into rat plasma and run through HPLC or HPLC/MS at a concentration of 0.5 μM, the retention time, ionic mass, and the possible separation among compounds by HPLC and/or HPLC/MS were used as basis for pooling 3–4 compounds into one “cassette”. Each “cassette” contains 3–4 compounds at 5 or 4 mg/kg for each compound. The cassettes were prepared as an oral suspension in 0.5% aqueous methylcellulose and 0.3% of polyoxyethylene (20) sorbiton monooleate (Tween-80). The dosing volume was 10 ml/kg via oral gavage. Male Sprague Dawley rats were fasted overnight in individual cages, with access to aqueous 10% dextrose. Two rats were dosed with each “cassette”. Plasma samples (˜1 ml) were collected at 1 and 2 h post-dosing from the 2 rats and pooled for extraction and analysis. […] Samples were analyzed by HPLC and HPLC/MS for comparison purpose. […]

| AUC [µM·h] | Structure (SMILES) |
| --- | --- |
| 16 | COc1ccc2c(O[C@@H]3C[C@H]4C(=O)N[C@]5(C(=O)O)C[C@H]5/C=C\CCCCC[C@H](NC(=O)OC5CCCC5)C(=O)N4C3)cc(-c3csc(NC4CCCC4)n3)nc2c1 [Compound 101] |
| 18 | COc1ccc2c(O[C@@H]3C[C@H]4C(=O)N[C@]5(C(=O)O)C[C@H]5/C=C\CCCCC[C@H](NC(=O)OC5CCCC5)C(=O)N4C3)cc(-c3csc(NC4CCCCC4)n3)nc2c1 [Compound 102] |
